The record followed here is patent publication US11014929B2, “Pyrazolopyrimidine compounds and uses thereof” (Incyte Corporation, priority 2016, dated 2021).

One may read the Ki as a dissociation constant, usually derived from enzyme kinetics or from competition with a known ligand. Read a high Ki as weaker binding.

Chain of HPK1 (Q92918 1-346): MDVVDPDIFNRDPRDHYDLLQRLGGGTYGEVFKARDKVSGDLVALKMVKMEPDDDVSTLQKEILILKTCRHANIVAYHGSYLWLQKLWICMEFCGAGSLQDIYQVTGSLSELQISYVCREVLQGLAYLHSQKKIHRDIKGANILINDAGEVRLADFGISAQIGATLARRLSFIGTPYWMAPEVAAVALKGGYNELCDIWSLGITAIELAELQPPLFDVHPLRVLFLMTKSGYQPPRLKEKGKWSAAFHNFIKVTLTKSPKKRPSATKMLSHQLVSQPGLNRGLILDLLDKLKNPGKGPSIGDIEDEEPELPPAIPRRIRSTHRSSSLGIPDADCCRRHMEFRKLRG

The target in the assay is HPK1 (Homo sapiens (Human), UniProt Q92918). As to the kind of experiment: HPK1 Kinase Binding Assay. Particulars: LanthaScreen tracer 222 binding, active HPK1, one hour incubation at 25° C. The method, then:
A stock solution of 1 mM test compound was prepared in DMSO. The compound plate was prepared by 3-fold and 11-point serial dilutions. 0.1 μL of the compound in DMSO was transferred from the compound plate to the white 384 well polystyrene plates. The assay buffer contained 50 mM HEPES, pH 7.5, 0.01% Tween-20, 5 mM MgCl2, 0.01% BSA, and 5 mM DTT. 5 μl of 4 nM active HPK1 (SignalChem M23-11G) prepared in the buffer was added to the plate. The enzyme concentration given was based on the given stock concentration reported by the vender. 5 μl of 18 nM tracer 222 (ThermoFisher PV6121) and 4 nM LanthaScreen Eu-Anti GST antibody (ThermoFisher PV5595) were added. After one hour incubation at 25° C., the plates were read on a PHERAstar FS plate reader (BMG Labtech). Ki values were determined.
In general terms: In TR-FRET formats the signal depends on donor and acceptor labels being close together.
Consider `COc1cccc(F)c1-c1ncc2[nH]nc(-c3ccc(C(C)(C)C#N)cc3)c2n1` [Example 42, 2-(4-(5-(2-Fluoro-6-methoxyphenyl)-1H-pyrazolo[4,3-d]pyrimidin-3-yl)phenyl)-2-methylpropanenitrile], for which the Ki is at most 100 nM. `COc1cccc(F)c1-c1ncc2[nH]nc(-c3cccc(N4CCOCC4)c3)c2n1` [Example 29, 4-(3-(5-(2-Fluoro-6-methoxyphenyl)-1H-pyrazolo[4,3-d]pyrimidin-3-yl)phenyl)morpholine] had an inhibitory constant (Ki) of at most 100 nM. Then `COc1cccc(F)c1-c1ncc2[nH]nc(-c3cccc(CN4CCN(C)CC4)c3)c2n1` [Example 25, 5-(2-Fluoro-6-methoxyphenyl)-3-(3-((4-methylpiperazin-1-yl)methyl)phenyl)-1H-pyrazolo[4,3-d]pyrimidine], with at most 100 nM; and `OCCNc1ncc(-c2n[nH]c3cnc(-c4c(F)cc5c(c4F)CNCC5)nc23)cn1` [Example 91, 2-(5-(5-(6,8-Difluoro-1,2,3,4-tetrahydroisoquinolin-7-yl)-1H-pyrazolo[4,3-d]pyrimidin-3-yl)pyrimidin-2-ylamino)ethanol], with at most 100 nM.

Molecule `CN1CCN(c2ccc(-c3n[nH]c4cnc(-c5ccc6cccnc6c5F)nc34)cc2)CC1` [Example 101, 8-Fluoro-7-(3-(4-(4-methylpiperazin-1-yl)phenyl)-1H-pyrazolo[4,3-d]pyrimidin-5-yl)quinoline] showed a Ki of at most 100 nM. For `COc1cccc(F)c1-c1ncc2[nH]nc(-c3ccnc(N4CCNCC4)c3)c2n1` [Example 50, 5-(2-Fluoro-6-methoxyphenyl)-3-(2-(piperazin-1-yl)pyridin-4-yl)-1H-pyrazolo[4,3-d]pyrimidine] the value was at most 100 nM.

As for `COc1cccc(F)c1-c1ncc2[nH]nc(-c3ccc(C(F)(F)F)cc3)c2n1` [Example 18, 5-(2-Fluoro-6-methoxyphenyl)-3-(4-(trifluoromethyl)phenyl)-1H-pyrazolo[4,3-d]pyrimidine], the Ki lay in the range of 100 to 500 nM. Then `CN1CCN(c2ccc(-c3n[nH]c4cnc(-c5cccc(F)c5F)nc34)cc2)CC1` [Example 44, 5-(2,3-Difluorophenyl)-3-(4-(4-methylpiperazin-1-yl)phenyl)-1H-pyrazolo[4,3-d]pyrimidine], with at most 100 nM. For `CNC1CCc2c1cc(F)c(-c1ncc3[nH]nc(-c4cnc(N5CCN(C)CC5)nc4)c3n1)c2F` (centres unmarked) [Example 114, 4,6-Difluoro-N-methyl-5-(3-(2-(4-methylpiperazin-1-yl)pyrimidin-5-yl)-1H-pyrazolo[4,3-d]pyrimidin-5-yl)-2,3-dihydro-1H-inden-1-amine] the value was at most 100 nM. For `NC1CCc2cc(F)c(-c3ncc4[nH]nc(-c5ccc(N6CCOCC6)nc5)c4n3)c(F)c21` (centres unmarked) [Example 118, 5,7-Difluoro-6-(3-(6-morpholinopyridin-3-yl)-1H-pyrazolo[4,3-d]pyrimidin-5-yl)-2,3-dihydro-1H-inden-1-amine] the value was at most 100 nM. `COc1cccc(F)c1-c1ncc2[nH]nc(-c3cccc(N4CCCC4)c3)c2n1` [Example 28, 5-(2-fluoro-6-methoxyphenyl)-3-(3-(pyrrolidin-1-yl)phenyl)-1H-pyrazolo[4,3-d]pyrimidine] returned a Ki of 100 to 500 nM.

Turning to `CN1CCN(c2ccc(-c3n[nH]c4cnc(-c5c(F)cc6c(c5F)CNCC6)nc34)cc2)CC1` [Example 99, 6,8-Difluoro-7-(3-(4-(4-methylpiperazin-1-yl)phenyl)-1H-pyrazolo[4,3-d]pyrimidin-5-yl)-1,2,3,4-tetrahydroisoquinoline], the Ki was at most 100 nM. Then `COc1cccc(F)c1-c1ncc2[nH]nc(-c3ccc(CN)cc3)c2n1` [Example 41, (4-(5-(2-Fluoro-6-methoxyphenyl)-1H-pyrazolo[4,3-d]pyrimidin-3-yl)phenyl)methanamine], with at most 100 nM; and `COc1cccc(F)c1-c1ncc2[nH]nc(-c3ccc(CN4CCN(C)CC4)cc3)c2n1` [Example 23, 5-(2-Fluoro-6-methoxyphenyl)-3-(4-((4-methylpiperazin-1-yl)methyl)phenyl)-1H-pyrazolo[4,3-d]pyrimidine], with at most 100 nM. Then `CN1CCN(c2ccc(-c3n[nH]c4cnc(-c5cccc6c5CCNC6)nc34)cc2)CC1` [Example 10, 5-(3-(4-(4-Methylpiperazin-1-yl)phenyl)-1H-pyrazolo[4,3-d]pyrimidin-5-yl)-1,2,3,4-tetrahydroisoquinoline], with at most 100 nM; and `CN1CCN(c2ccc(-c3n[nH]c4cnc(-c5ccc6c(c5)C(=O)NC6)nc34)cc2)CC1` [Example 7, 6-(3-(4-(4-Methylpiperazin-1-yl)phenyl)-1H-pyrazolo[4,3-d]pyrimidin-5-yl)isoindolin-1-one], with at most 100 nM. Then `CS(=O)(=O)NCc1ccc(-c2n[nH]c3cnc(-c4c(F)cc5c(c4F)CNCC5)nc23)cc1` [Example 95, N-(4-(5-(6,8-Difluoro-1,2,3,4-tetrahydroisoquinolin-7-yl)-1H-pyrazolo[4,3-d]pyrimidin-3-yl)benzyl)methanesulfonamide], with at most 100 nM; and `CNCc1cc(F)c(-c2ncc3[nH]nc(-c4ccc(N5CCC(C)(O)CC5)nc4)c3n2)c(F)c1` [Example 122, 1-(5-(5-(2,6-Difluoro-4-((methylamino)methyl)phenyl)-1H-pyrazolo[4,3-d]pyrimidin-3-yl)pyridin-2-yl)-4-methylpiperidin-4-ol], with at most 100 nM. Molecule `CNCc1cc(F)c(-c2ncc3[nH]nc(-c4ccnc(N5CCOCC5)c4F)c3n2)c(F)c1` [Example 69, 1-(3,5-Difluoro-4-(3-(3-fluoro-2-morpholinopyridin-4-yl)-1H-pyrazolo[4,3-d]pyrimidin-5-yl)phenyl)-N-methylmethanamine] showed an inhibition constant Ki of at most 100 nM. Then `CN(C)c1ncc(-c2n[nH]c3cnc(-c4c(F)cc5c(c4F)CNCC5)nc23)cn1` [Example 93, 5-(5-(6,8-Difluoro-1,2,3,4-tetrahydroisoquinolin-7-yl)-1H-pyrazolo[4,3-d]pyrimidin-3-yl)-N,N-dimethylpyrimidin-2-amine], with at most 100 nM. Take `CN1CCN(c2cc(-c3n[nH]c4cnc(-c5c(F)cc6c(c5F)CNCC6)nc34)ccn2)CC1` [Example 90, 6,8-Difluoro-7-(3-(2-(4-methylpiperazin-1-yl)pyridin-4-yl)-1H-pyrazolo[4,3-d]pyrimidin-5-yl)-1,2,3,4-tetrahydroisoquinoline]: the Ki is at most 100 nM.

Turning to `Cn1cc(-c2n[nH]c3cnc(-c4c(F)cc(NC(=O)CN5CCCC5)cc4F)nc23)cn1` [Example 82, N-(3,5-Difluoro-4-(3-(1-methyl-1H-pyrazol-4-yl)-1H-pyrazolo[4,3-d]pyrimidin-5-yl)phenyl)-2-(pyrrolidin-1-yl)acetamide], the Ki was at most 100 nM. In turn, `CNC(=O)c1cncc(-c2ncc3[nH]nc(-c4ccc(N5CCN(C)CC5)cc4)c3n2)c1` [Example 9, N-Methyl-5-(3-(4-(4-methylpiperazin-1-yl)phenyl)-1H-pyrazolo[4,3-d]pyrimidin-5-yl)nicotinamide] came in with an inhibition constant (Ki) of at most 100 nM. As for `COc1cccc(F)c1-c1ncc2[nH]nc(-c3cnn(-c4ccccc4)c3)c2n1` [Example 48, 5-(2-Fluoro-6-methoxyphenyl)-3-(1-phenyl-1H-pyrazol-4-yl)-1H-pyrazolo[4,3-d]pyrimidine], the Ki is at most 100 nM. Then `COc1cccc(F)c1-c1ncc2[nH]nc(-c3ccnc(N4CCN(C)CC4)c3)c2n1` [Example 51, 5-(2-Fluoro-6-methoxyphenyl)-3-(2-(4-methylpiperazin-1-yl)pyridin-4-yl)-1H-pyrazolo[4,3-d]pyrimidine], with at most 100 nM.

For the molecule `COc1cccc(F)c1-c1ncc2[nH]nc(-c3ccccc3F)c2n1` [Example 13, 5-(2-Fluoro-6-methoxyphenyl)-3-(2-fluorophenyl)-1H-pyrazolo[4,3-d]pyrimidine], the Ki is 100 to 500 nM. For `COc1cccc(F)c1-c1ncc2[nH]nc(-c3ccc(C(=O)NC4CCCC4)cc3)c2n1` [Example 32, N-Cyclopentyl-4-(5-(2-fluoro-6-methoxyphenyl)-1H-pyrazolo[4,3-d]pyrimidin-3-yl)benzamide] the value was at most 100 nM; for `CN1CCN(Cc2ccc(-c3n[nH]c4cnc(-c5c(F)ccc6c5CCNC6)nc34)cc2)CC1` [Example 106, 6-Fluoro-5-(3-(4-((4-methylpiperazin-1-yl)methyl)phenyl)-1H-pyrazolo[4,3-d]pyrimidin-5-yl)-1,2,3,4-tetrahydroisoquinoline], at most 100 nM. `CNCc1cc(C)c(-c2ncc3[nH]nc(-c4ccc(N5CCN(C)CC5)cc4)c3n2)cn1` [Example 104, N-Methyl-1-(4-methyl-5-(3-(4-(4-methylpiperazin-1-yl)phenyl)-1H-pyrazolo[4,3-d]pyrimidin-5-yl)pyridin-2-yl)methanamine] returned an inhibition constant (Ki) of at most 100 nM. For `COc1cccc(F)c1-c1ncc2[nH]nc(-c3ccc(C4CCOCC4)cc3)c2n1` [Example 43, 5-(2-Fluoro-6-methoxyphenyl)-3-(4-(tetrahydro-2H-pyran-4-yl)phenyl)-1H-pyrazolo[4,3-d]pyrimidine] the value was at most 100 nM; for `COc1cccc(F)c1-c1ncc2[nH]nc(-c3cc(C)n[nH]3)c2n1` [Example 88, 5-(2-Fluoro-6-methoxyphenyl)-3-(3-methyl-1H-pyrazol-5-yl)-1H-pyrazolo[4,3-d]pyrimidine], at most 100 nM; for `CCN1CCN(c2ccc(-c3n[nH]c4cnc(-c5c(F)cccc5OC)nc34)cc2)CC1` [Example 37, 3-(4-(4-Ethylpiperazin-1-yl)phenyl)-5-(2-fluoro-6-methoxyphenyl)-1H-pyrazolo[4,3-d]pyrimidine], at most 100 nM.
